Like-named read-outs stand apart in the source and are kept apart here.
Experiments:
[1] = tested on: TNF-α production in LPS-induced BV-2 cells; assay: TNF-α production in LPS-induced BV-2 cells (ELISA); format: cell-based, murine; settings: for Effect on TNF-α levels: up to 10 µM; for IC50: Mus musculus, BV-2, read-out: IC50 against TNF-α
Description: BV-2 cells were seeded at a density of 5 × 10^5 cells/mL in 96-well plates. […] Finally, 1 µg/mL LPS was added to the cell culture medium for 24 h to induce inflammation.

[2] = tested on: NF-κB signaling pathway in LPS-exposed BV-2 cells; assay: Western blotting of p-NF-κB and NF-κB in LPS-exposed BV-2 cells; format: cell-based, murine; settings: 1 and 10 µM, LPS 1 µg/mL 4 h
Description: Then the cells were incubated with or without LPS (1 µg/mL) for 4 h. Cells were harvested using trypsin and washed twice in cold Dulbecco’s phosphate-buffered saline and lysed with RIPA lysis buffer (Elpis, Daejeon, Korea) containing protease and phosphatase inhibitor mini tablets (Thermo Fisher, Waltham, MA, USA). Protein lysate concentrations were determined using the Pierce BCA Protein Assay kit (Thermo Fisher). Protein samples (5 µg) were separated via 5–20% sodium dodecyl sulfate polyacrylamide gel electrophoresis and then transferred to polyvinylidene fluoride membranes (ATTO, Tokyo, Japan). After transfer, membranes were blocked using Tris-buffered saline containing 0.5% Tween 20 and 5% bovine serum albumin at room temperature for 1 h. The membranes were incubated overnight at 4℃ with primary antibodies at a dilution ratio of 1:1000. […] Subsequently, blots were detected using horseradish peroxidase-conjugated secondary antibodies (1:10,000 dilution) and the ECL substrate (Millipore Corporation, Billerica, MA, USA) at room temperature for 1 h. Protein expression levels were measured using WSE-6100 LuminoGraph (ATTO). The bands were analyzed using the ImageJ software (NIH, Bethesda, MD, USA).

[3] = Bidirectional MDR1-MDCK monolayer permeability; format: in vitro ADME, canine; settings: dog, MDCK-MDR1; for Papp at 3 µM: both directions, read-out: Apparent permeability coefficients; for Papp A→B at 3 µM / Papp A→B at 10 µM / Papp A→B at 30 µM: read-out: Papp Apical → Basolateral; for Papp B→A at 3 µM / Papp B→A at 10 µM / Papp B→A at 30 µM: read-out: Papp Basolateral → Apical; for Papp A→B: read-out: Papp in the apical-to-basolateral direction
Description: (§1) MDR1-MDCK cells were seeded at a density of 2 × 10^5 cells/well on the apical side of 24-transwell plates with a pore size of 0.4 μm (Corning Costar, Cambridge, MA, USA). Each basolateral chamber was filled with 0.6 mL medium, and each apical side with 0.2 mL medium containing cells. The plates seeded with cells were incubated for 3 days. The culture medium was replaced on both the apical and basolateral sides 2 days after seeding. Before the experiment, the transepithelial electrical resistance was measured using an epithelial voltohmmeter (Millicell ERS-2; Millipore), where 300 ohms or greater was considered to indicate the formation of a cell monolayer with tight junctions. The cells were rinsed twice with pre-warmed Hank’s balanced salt solution (HBSS) containing 10 mM of HEPES and were incubated in a CO2 incubator for 30 min. […] After equilibration, the solutions containing the test or reference compounds were added to either the apical side (0.2 mL) or basolateral side (0.6 mL) of the wells, and the plates were incubated in a shaking incubator (37℃, 200 rpm). Samples were collected every 30 min. To test for apical-to-basolateral flow, 110 µL sample was removed from each basolateral chamber; to test for basolateral-to-apical flow, 110 µL sample was taken from each apical chamber; then, each well was replenished with 110 µL fresh HBSS. To each sample, 50 µL internal standard (5 ng/mL disopyramide) in water was added. Samples were prepared for analysis using solid-phase extraction, and the sample concentrations were analyzed via LC-MS/MS. The permeability of the tested compounds was evaluated by calculating the apparent permeability coefficient (Papp, cm/s) and the efflux ratio (ER). The Papp was calculated as follows: [drawing 1] where dQ/dt is the initial permeability rate of the compound across the cells (ng/s), A is the surface area of the cell monolayer (cm^2), and C0 is the initial concentration of the donor side (ng/mL). From the apical-to-basolateral and basolateral-to-apical Papp values, the ER was calculated as follows: [drawing 2]

MDR1-MDCK monolayer = assay: Bidirectional MDR1-MDCK monolayer permeability; format: in vitro ADME, canine; settings: for P-gp substrate: ER > 2 indicates drug efflux
Description: as §1

in vivo = settings: male, C57BL/6J, mouse; for AUC(0-t): AUClast
Description: Plasma samples were obtained via centrifugation at 15,000 rpm for 3 min and stored at − 20℃ until LC-MS/MS analysis.
The brain-to-plasma ratio (Kp) and unbound Kp (Kp,uu) were calculated as follows: [drawing 5] [drawing 6]
Pharmacokinetic parameters were calculated via non-compartmental analysis using Phoenix WinNonlin, ver. 8.3 (Pharsight, Mountain View, CA, USA).

[4] = Brain disposition in mice
Description: Residual blood in the brain was removed from circulation via cardiac perfusion with saline solution.
For both plasma and brain samples, 30 µL each sample was vortexed with 270 µL acetonitrile containing disopyramide as the internal standard for protein precipitation.

[5] = In vitro protein-binding assay using equilibrium dialysis, plasma; format: in vitro ADME, mouse
Description: (§2) A rapid equilibrium dialysis device with inserts (cat no. #90,112, Thermo Fisher) was used for the protein-binding assay. […] The samples were incubated for 4 h in a shaking incubator (37℃, 300 rpm). After incubation, 50 µL buffer from the white chamber was added to 50 µL fresh mouse plasma or brain homogenate, and 50 µL dosing solution from the red chamber was added to 50 µL fresh buffer to adjust for matrix effects. To each sample, 200 µL ice-cold acetonitrile with internal standard was added. The samples were centrifuged at 4,000 rpm for 20 min and the supernatants were collected for LC-MS/MS analysis. The unbound fraction of drug (Fu) in plasma and brain tissue was calculated as follows based on previous studies: [drawing 3] [drawing 4]
(§3) where Cprotein-free compartment and Cprotein-containing compartment, D, and dh are the concentrations of drug in the buffer chamber and drug solution chamber, dilution factor, and diluted brain homogenate, respectively.
(§4) The values were calculated using the measured diluted free fractions and the respective dilution factor.

[6] = In vitro protein-binding assay using equilibrium dialysis, brain homogenate; format: in vitro ADME, mouse
Description: as §2, §3, §4

[7] = 1 h pretreatment, LPS 1 µg/mL 24 h
[8] = C57BL/6J, mouse, brain, po, 10 mg/kg, 4 h after oral 10 mg/kg, read-out: Concentration, Brain
[9] = C57BL/6J, mouse, brain, po, 10 mg/kg, 4 h after oral 10 mg/kg, read-out: Unbound brain concentration
[10] = C57BL/6J, mouse, brain, po, 10 mg/kg, oral 10 mg/kg, converted from ng/g, read-out: Unbound brain concentration
[11] = C57BL/6J, mouse, plasma, po, 10 mg/kg, 4 h after oral 10 mg/kg, read-out: Concentration, Plasma
[12] = C57BL/6J, mouse, plasma, po, 10 mg/kg, 4 h after oral 10 mg/kg, read-out: Unbound plasma concentration

| Compound | Effect on TNF-α levels [1, 7] | Effect on LPS-induced increase in p-NF-κB expression [2] | Papp at 3 µM ([3]; 3 µM) [×10⁻⁶ cm/s] | Papp A→B at 3 µM ([3]; 3 µM) [×10⁻⁶ cm/s] | Papp B→A at 3 µM ([3]; 3 µM) [×10⁻⁶ cm/s] | Papp A→B at 10 µM ([3]; 10 µM) [×10⁻⁶ cm/s] | Papp B→A at 10 µM ([3]; 10 µM) [×10⁻⁶ cm/s] | Papp A→B at 30 µM ([3]; 30 µM) [×10⁻⁶ cm/s] | Papp B→A at 30 µM ([3]; 30 µM) [×10⁻⁶ cm/s] | Papp A→B ([3]; over 3, 10, and 30 µM) [×10⁻⁶ cm/s] | Permeability class according to FDA guidelines (MDR1-MDCK monolayer) | P-gp substrate (MDR1-MDCK monolayer) | bioavailability (in vivo) [%] | AUC(0-inf) (in vivo; iv, 1 mg/kg) [ng·h/mL] | clearance (in vivo; iv, 1 mg/kg) [mL/min/kg] | half-life (in vivo; iv, 1 mg/kg) [h] | AUC(0-t) (in vivo; iv, 1 mg/kg) [ng·h/mL] | AUC(0-inf) (in vivo; po, 10 mg/kg) [ng·h/mL] | Cmax (in vivo; po, 10 mg/kg) [ng/mL] | Tmax (in vivo; po, 10 mg/kg) [h] | other results |
| --- | --- | --- | --- | --- | --- | --- | --- | --- | --- | --- | --- | --- | --- | --- | --- | --- | --- | --- | --- | --- | --- |
| O=C(Nc1c(Cl)cncc1Cl)c1ccc(OC(F)F)c(OCC2CC2)c1 [roflumilast] | dose-dependent decrease | prevented the LPS-induced increase in p-NF-κB expression in a concentration-dependent manner | > 23 | 25.1 ± 1.28 | 23.9 ± 3.61 | 44.5 ± 2.53 | 40.8 ± 6.48 | 113 ± 5.7 | 72.2 ± 6.32 | > 25 | high | not P-gp substrates | 2.3 | 5070 ± 1100 | 3.33 | 3.74 ± 0.71 | 4890 ± 940 | 1290 ± 540 | 150 ± 70 | 2.33 ± 1.53 | IC50 [1, 7]: 12.2 nM; IC50 ([1]; converted from nM): 4.9 ng/mL; half-life (in vivo; po, 10 mg/kg): 7.13 ± 2.86 h; AUC(0-t) (in vivo; po, 10 mg/kg): 1130 ± 540 ng·h/mL; concentration at 4 h [4, 8]: 18.2 ± 12.9 ng/g; concentration at 4 h [4, 9]: 0.07 ng/g; concentration at 4 h [4, 10]: 0.17 nM; concentration at 4 h [4, 11]: 30.6 ± 14.2 ng/mL; concentration at 4 h [4, 12]: 0.39 ng/mL; fraction unbound at 4 h, 5 µM ([5]; mouse, plasma): 0.0126 ± 0.0058; fraction unbound at 4 h, 5 µM ([6]; mouse, brain homogenate): 0.0037 ± 0.002 |
| O=C(O)Cc1ccc(Cc2cc(-c3cccc(Cl)c3)nc(C(F)(F)F)c2)cc1 [zatolmilast] | did not have this effect | did not | 3.72 to 7.18 | 3.72 ± 0.33 | 7.18 ± 1.53 | 9.59 ± 0.84 | 18 ± 1.37 | 70.3 ± 9.58 | 126 ± 8.39 | > 3.7 | moderately high | not P-gp substrates | 3.7 | 86900 ± 10900 | 0.167 | 6.35 ± 0.62 | 81900 | 62000 ± 31800 | 2530 ± 860 | 2 ± 1.73 | efflux ratio at 3 µM ([3]; 3 µM, read-out: ER): 1.92; efflux ratio at 10 µM ([3]; 10 µM, read-out: ER): 1.89; efflux ratio at 30 µM ([3]; 30 µM, read-out: ER): 1.81; efflux ratio ([3]; over 3, 10, and 30 µM, read-out: Efflux ratios (ERs)): < 1.92; Efflux ratios (ERs) (MDR1-MDCK monolayer; over 3, 10, and 30 µM): < 2.0; Vd (in vivo; iv, 1 mg/kg): 0.07 ± 0.01 L/kg; half-life (in vivo; po, 10 mg/kg): 20.4 ± 6.77 h; AUC(0-t) (in vivo; po, 10 mg/kg): 30300 ± 9640 ng·h/mL; Brain Kp,uu ([4]; 4 h after oral 10 mg/kg, 10 mg/kg): 0.18; Kp at 4 h ([4]; C57BL/6J, mouse, brain and plasma, 4 h after oral 10 mg/kg): 0.33; Kp uu at 4 h ([4]; C57BL/6J, mouse, brain and plasma, po, 10 mg/kg, 4 h after oral 10 mg/kg): < 0.18; concentration at 4 h [4, 8]: 1200 ± 345 ng/g; concentration at 4 h [4, 9]: 1.7 ng/g; concentration at 4 h [4, 10]: 4.2 nM; concentration at 4 h [4, 11]: 3630 ± 890 ng/mL; concentration at 4 h [4, 12]: 9.57 ng/mL; fraction unbound at 4 h, 5 µM ([5]; pooled mouse plasma, 5 µM, mouse plasma, 4 h dialysis, read-out: Fu, Plasma): 0.0026 ± 0.0001; fraction unbound at 4 h, 5 µM ([6]; mouse blank brain homogenate, 5 µM, mouse brain homogenate, 4 h dialysis, read-out: Fu, Brain): 0.0014 ± 0.0002 |
